In data set [1] the test system is panel of 32 established human OVCA cell lines. As to the kind of experiment: Cell proliferation dose response (IncuCyte ZOOM), 48 h, whole panel. The conditions noted are these: 32 OVCA cell lines, threshold for sensitive, read-out: geometric median of GI50. It counts as cell-based. The procedure: The in vitro effects of CX-5461 on human OVCA cells were evaluated using a panel of 32 established human OVCA cell lines. These cell lines were selected to be representative of a range of histologic OVCA subtypes (Supplementary Table 1). Increasing concentrations (1 nM–10 μM) of CX-5461 were used to assess the concentration of drug that induced a 50% reduction in cell proliferation (GI50) at 48 hours (h). […] There was no statistically significant correlation between TP53 mutation status and sensitivity to CX-5461 (Supplementary Table 1, Fig. 1b). The efficacy of growth inhibition by CX-5461 correlated with a higher rate of basal rDNA transcription in the sensitive compared with the resistant OVCA cell lines (Fig. 1c).
Fig. 1 Sensitivity of ovarian cancer (OVCA) cell lines to CX-5461. a CX-5461 doses that induce 50% growth inhibition (GI50) at 48 hours. Error bars represent mean ± standard deviation (SD). […]
For assessing OVCA cells’ sensitivity to CX-5461, dose response curves were generated for each cell line by plating cells in 96-well plates, culturing them for 24 hours and then treating them with either vehicle or increasing concentrations of drug (0, 0.001, 0.003, 0.01, 0.03, 0.1, 0.3, 1, 3, 10 and 30 μM CX-5461) for 48 h. Cell number was assessed using the IncuCyte ZOOM imaging system (Essen BioScience). […] During this time the degree of confluency was measured every 24 h. […]

For a further data set, the system named is OVCAR4 cells. As to the kind of experiment: Mini drug screen, proliferation by DAPI staining and Cellomics imaging. It is filed as cell-based, human. The conditions noted are these: OVCAR4. The text has this:
Since CX-5461 in combination with BMN-673 lead to increased DNA damage, we hypothesized that combining CX-5461 with PARPi or other DNA repair and DDR inhibitors (DDR therapy) may improve the efficacy of treating HGSOC. We therefore performed a focused/boutique drug screen in the HR-proficient OVCAR4 cells for DNA repair and DDR inhibitors that may cooperate with CX-5461 to enhance growth arrest (Fig. 8a). […] We next examined the cooperation between CX-5461 and BMN-673 or ATRi in inducing cell death in three additional HR-proficient HGSOC cell lines (Supplementary Fig. 3C) and identified robust and significant interactions between BMN-673 and CX-5461 in inducing cell death compared with the ATRi (VE-821) (Fig. 8b). In addition, dose-response curves of BMN-673 in the presence or absence of CX-5461 confirmed CX-5461’s strong interaction with BMN-673 (Fig. 8c).
Colour-coding denotes the level of proliferation as measured by DAPI staining and imaging using Cellomics (green denotes reduced proliferation). Dose response of single drug treatments were corrected for vehicle control and the combination was corrected for response to 80 nM CX-5461, the average values of n = 5 are presented. The combination of CX-5461 with BMN-673 or ATRi is highlighted by yellow boxes. b Quantitation of SubG1 DNA content by PI staining of cells treated with vehicle, 100 nM CX-5461, 1 μM VE-821, 100 nM BMN-673 or in combination for 7 days (n = 3 biologically independent experiments). Error bars represent mean ± SEM. Flow cytometry gating strategy is shown in Supplementary Fig. 3D. C) Representative BMN-673 dose response curves ± 30 nM CX-5461. Cell proliferation was measured using SRB assays at 5 days post-treatment. Dose response curves for BMN-673 were corrected for DMSO treatment control and the combination was corrected for response to 30 nM CX-5461. Representative of three biological replicates. Error bars represent mean ± SEM of n = 5 technical replicates. d BrdU cell cycle analysis of cells treated with vehicle, 1 μM CX-5461, 100 nM BMN-673 or in combination for 72 h as described in Fig. 3b and Supplementary Fig. 3D. n = 3, mean ± SEM. e In vitro proliferation time-course assessed by cell confluency using IncuCyte ZOOM. Representative of n = 3 biological replicates, mean ± SEM of five technical replicates. Dashed lines denote re-supplement of media with drugs. f CX-5461 and BMN-673 cooperate in inhibiting clonogenic survival. Representative image of n = 6 biologically independent experiments for OVCAR8 and OVCAR8 RAD51C KO cells and n = 3 biological replicates for FT282 cells, mean ± SEM. g Clonogenic assay of OV90 cells. n = 3 technical replicates. Statistical analysis (in b, d and f) was performed using a two-sided one-way ANOVA, Tukey’s multiple comparisons test (adjusted p-values are shown). TEXT PRINTED IN THE PICTURE: (a) CX-5461: GI20 80 nM

Details of data set [2]: method as in PMID 31092402. As to conditions: Phase I CX-5461 dose escalation study ref 16; cited from earlier work.

SMILES strings stand for the structures.

On to `Cc1cnc(CNC(=O)c2c(=O)c3ccc(N4CCCN(C)CC4)nc3n3c2sc2ccccc23)cn1` [CX-5461], for which the GI50 in data set [1] stood at 363 nM. Moreover, in the data set on OVCAR4 cells, the GI20 was 80 nM. The “plasma concentrations range, lower end” value in data set [2] was 584.1 nM.
